Source: US8247351B2, “Insecticidal compositions having improved effect” (Bayer Cropscience AG, priority 2005, dated 2012)

Tests used:
Assay type in all cases: in vivo
Myzus persicae [1] = assay: Myzus persicae test, Example D (sprayed to runoff, ammonium salt boosting)
Description: (§1) Solvent: 7 parts by weight dimethylformamide
(§2) Emulsifier: 2 parts by weight alkylaryl polyglycol ether
(§3) An appropriate preparation of active ingredient is prepared by mixing 1 part by weight of active ingredient with the stated amounts of solvent and emulsifier and diluting the concentrate with water to the desired concentration. For the application with ammonium salts or phosphonium salts, these salts are added in a concentration of 1000 ppm to the spray liquor.
Paprika plants (Capsicum annum) heavily infested by the green peach aphid (Myzus persicae) are treated by being. sprayed to runoff with the preparation of active ingredient at the desired concentration. After the desired time the destruction in % is ascertained. 100% means that all of the animals have been killed; 0% means that no animals have been killed.

Aphis gossypii [2] = assay: Aphis gossypii test, Example E (sprayed to runoff, ammonium salt boosting)
Description: as §1, §2
as §3, with “concentrate with emulsifier-containing water to” for “concentrate with water to”
(§4) Cotton plants (Gossypium hirsutum) heavily infested by the cotton aphid (Aphis gossypii) are sprayed to runoff with the preparation of active ingredient at the desired concentration.
(§5) After the desired time the destruction in % is ascertained. 100% means that all of the aphids have been killed; 0% means than no aphids were killed.

Myzus persicae [3] = assay: Myzus persicae test, Example F (sprayed to runoff, ammonium salt plus penetrant)
Description: as §1, §2
An appropriate preparation of active ingredient is prepared by mixing 1 part by weight of active ingredient with the stated amounts of solvent and emulsifier and diluting the concentrate with water to the desired concentration. For the application with ammonium salts or phosphonium salts and penetrant (rapeseed oil methyl ester 500 EW), they are each added in a concentration of 1000 ppm to the spray liquor.
After the desired time the destruction in % is ascertained. 100% means that all of the animals have been killed; 0% means that no animals have been killed.

Aphis gossypii [4] = assay: Aphis gossypii test, Example G (sprayed to runoff, ammonium salt plus penetrant)
Description: as §1, §2
An appropriate preparation of active ingredient is prepared by mixing 1 part by weight of active ingredient with the stated amounts of solvent and emulsifier and diluting the concentrate with emulsifier-containing water to the desired concentration. For the application with ammonium salts or phosphonium salts and penetrants (rapeseed oil methyl esters 500 EW), they are each added in a concentration of 1000 ppm a.i. to the spray liquor.
as §4, §5

[5] = 0.8 ppm active ingredient, +AS (1000 ppm)
[6] = 0.8 ppm active ingredient, no additive
[7] = 4 ppm active ingredient, +AS (1000 ppm)
[8] = 4 ppm active ingredient, no additive
[9] = 4 ppm active ingredient, +RME (1000 ppm)
[10] = 4 ppm active ingredient, +RME +AS (each 1000 ppm)
[11] = 20 ppm active ingredient, +AS (1000 ppm)
[12] = 20 ppm active ingredient, no additive
[13] = 100 ppm active ingredient, +AS (1000 ppm)
[14] = 100 ppm active ingredient, +RME (1000 ppm)
[15] = 100 ppm active ingredient, +RME +AS (each 1000 ppm)
[16] = 100 ppm active ingredient, no additive
[17] = 20 ppm active ingredient, +RME (1000 ppm)
[18] = 20 ppm active ingredient, +RME +AS (each 1000 ppm)

## COC1CCC2(CC1)OC(=O)C(c1c(C)cc(C)cc1C)=C2O (stereo not shown) [Example I-2-a-1]
Myzus persicae [1]; [5]
  Degree of destruction/% after 6 days: 65%
Myzus persicae [1]; [6]
  Degree of destruction/% after 6 days: 20%
Myzus persicae [1]; [7]
  Degree of destruction/% after 6 days: 98%
Myzus persicae [1]; [8]
  Degree of destruction/% after 6 days: 90%
Aphis gossypii [2]; [5]
  Degree of destruction/% after 6 days: 85%
Aphis gossypii [2]; [6]
  Degree of destruction/% after 6 days: 0%
Aphis gossypii [2]; [7]
  Degree of destruction/% after 6 days: 95%
Aphis gossypii [2]; [8]
  Degree of destruction/% after 6 days: 80%
Myzus persicae [3]; [5]
  Degree of destruction/% after 6 days: 65%
Myzus persicae [3]; 0.8 ppm active ingredient, +RME (1000 ppm)
  Degree of destruction/% after 6 days: 95%
Myzus persicae [3]; 0.8 ppm active ingredient, +RME +AS (each 1000 ppm)
  Degree of destruction/% after 6 days: 100%
Myzus persicae [3]; [6]
  Degree of destruction/% after 6 days: 20%

## Cc1ccccc1-c1c(O)c(C)c(-c2ccccn2)oc1=O [Example I-4-a-2]
Aphis gossypii [4]; [7]
  Degree of destruction/% after 6 days: 60%
Aphis gossypii [4]; [9]
  Degree of destruction/% after 6 days: 0%
Aphis gossypii [4]; [10]
  Degree of destruction/% after 6 days: 65%
Aphis gossypii [4]; [8]
  Degree of destruction/% after 6 days: 5%
Aphis gossypii [2]; [7]
  Degree of destruction/% after 6 days: 60%
Aphis gossypii [2]; [8]
  Degree of destruction/% after 6 days: 50%

## COc1cc(C)cc(C)c1-c1c(O)sc(-c2ccc(F)cc2)nc1=O [Example I-5-a-1]
Myzus persicae [1]; [11]
  Degree of destruction/% after 6 days: 55%
Myzus persicae [1]; [12]
  Degree of destruction/% after 6 days: 0%
Myzus persicae [3]; [7]
  Degree of destruction/% after 6 days: 5%
Myzus persicae [3]; [9]
  Degree of destruction/% after 6 days: 55%
Myzus persicae [3]; [10]
  Degree of destruction/% after 6 days: 95%
Myzus persicae [3]; [8]
  Degree of destruction/% after 6 days: 0%

## Cc1cc(C)c(C2=C(O)C3(CCCCC3)CC2=O)c(C)c1 [Example I-6-a-1]
Aphis gossypii [4]; [13]
  Degree of destruction/% after 6 days: 40%
Aphis gossypii [4]; [14]
  Degree of destruction/% after 6 days: 60%
Aphis gossypii [4]; [15]
  Degree of destruction/% after 6 days: 80%
Aphis gossypii [4]; [16]
  Degree of destruction/% after 6 days: 40%

## COC1CCCC2(CC(O)=C(c3c(C)cc(C)cc3C)C2=O)C1 (stereo not shown) [Example I-6-a-2]
Aphis gossypii [4]; [13]
  Degree of destruction/% after 6 days: 30%
Aphis gossypii [4]; [14]
  Degree of destruction/% after 6 days: 15%
Aphis gossypii [4]; [15]
  Degree of destruction/% after 6 days: 40%
Aphis gossypii [4]; [16]
  Degree of destruction/% after 6 days: 0%

## O=C1C(c2cc(-c3ccc(Cl)cc3)ccc2Cl)C(=O)N2CCCCN12 [Example I-8-a-1]
Aphis gossypii [4]; [13]
  Degree of destruction/% after 6 days: 15%
Aphis gossypii [4]; [14]
  Degree of destruction/% after 6 days: 15%
Aphis gossypii [4]; [15]
  Degree of destruction/% after 6 days: 40%
Aphis gossypii [4]; [16]
  Degree of destruction/% after 6 days: 0%
Myzus persicae [3]; [13]
  Degree of destruction/% after 6 days: 30%
Myzus persicae [3]; [14]
  Degree of destruction/% after 6 days: 30%
Myzus persicae [3]; [15]
  Degree of destruction/% after 6 days: 45%
Myzus persicae [3]; [16]
  Degree of destruction/% after 6 days: 15%

## O=C1C(c2cc(-c3ccc(Cl)cc3)ccc2Cl)C(=O)N2CCOCCN12 [Example I-8-a-2]
Myzus persicae [3]; [13]
  Degree of destruction/% after 6 days: 15%
Myzus persicae [3]; [14]
  Degree of destruction/% after 6 days: 15%
Myzus persicae [3]; [15]
  Degree of destruction/% after 6 days: 55%
Myzus persicae [3]; [16]
  Degree of destruction/% after 6 days: 0%

## Cc1ccc(-c2ccc(Cl)cc2)c(C)c1C1C(=O)N2CCOCCN2C1=O [Example I-8-a-3]
Aphis gossypii [4]; [11]
  Degree of destruction/% after 6 days: 50%
Aphis gossypii [4]; [17]
  Degree of destruction/% after 6 days: 50%
Aphis gossypii [4]; [18]
  Degree of destruction/% after 6 days: 90%
Aphis gossypii [4]; [12]
  Degree of destruction/% after 6 days: 15%

## Cc1cc(C)c(C2C(=O)N3CCOCCN3C2=O)c(C)c1-c1ccc(Cl)cc1 [Example I-8-a-4]
Aphis gossypii [4]; 90 ppm active ingredient, +AS (1000 ppm)
  Degree of destruction/% after 6 days: 35%
Aphis gossypii [4]; 90 ppm active ingredient, +RME (1000 ppm)
  Degree of destruction/% after 6 days: 30%
Aphis gossypii [4]; 90 ppm active ingredient, +RME +AS (each 1000 ppm)
  Degree of destruction/% after 6 days: 75%
Aphis gossypii [4]; 90 ppm active ingredient, no additive
  Degree of destruction/% after 6 days: 30%

## Cc1ccc(-c2ccc(Cl)cc2)cc1C1=C(O)C(C)(C)C(C)(C)NC1=O [Example I-9-a-1]
Myzus persicae [3]; [13]
  Degree of destruction/% after 6 days: 0%
Myzus persicae [3]; [14]
  Degree of destruction/% after 6 days: 5%
Myzus persicae [3]; [15]
  Degree of destruction/% after 6 days: 50%
Myzus persicae [3]; [16]
  Degree of destruction/% after 6 days: 15%

## Cc1ccc(-c2ccc(Cl)cc2)cc1C1=C(O)C2(C)CCCCC2OC1=O (stereo not shown) [Example I-10-a-2]
Aphis gossypii [2]; [7]
  Degree of destruction/% after 6 days: 50%
Aphis gossypii [2]; [8]
  Degree of destruction/% after 6 days: 0%
Aphis gossypii [2]; [11]
  Degree of destruction/% after 6 days: 80%
Aphis gossypii [2]; [12]
  Degree of destruction/% after 6 days: 10%
Myzus persicae [3]; [11]
  Degree of destruction/% after 6 days: 10%
Myzus persicae [3]; [17]
  Degree of destruction/% after 6 days: 0%
Myzus persicae [3]; [18]
  Degree of destruction/% after 6 days: 65%
Myzus persicae [3]; [12]
  Degree of destruction/% after 6 days: 5%
